{
  "source": "patent US9061003B2",
  "about": "“Therapeutic or preventive agent for diabetes” (NITTA GELATIN INC., priority 2011, dated 2015)",
  "tested_on": "ob/ob mice",
  "experiment": "Evaluation of sugar tolerance by glucose loading test",
  "assay_type": "in vivo",
  "conditions": "0.85 g/kg orally 30 minutes before oral glucose 2 g/kg",
  "procedure": "Six-weeks old male ob/ob mice (Japan SLC) were allowed to acclimate by feeding with normal diet (MF, Oriental Yeast) for 7 days, and subjected to the experiment. After fasting the same mice overnight (16 hours), each collagen peptide (0.85 g/kg) or casein (0.85 g/kg, manufactured by DMV, Netherlands) was orally administered, and glucose (2 g/kg) was orally administered after 30 minutes, and the effect on the sugar tolerance was examined by a glucose loading test (2 g/kg). After 0, 15, 30, 60 and 120 minutes, the blood sugar level was measured by using a blood glucose measuring apparatus (Glutest ace R, SANWA KAGAKU KENKYUSHO CO., LTD.), and AUC0-120 min was calculated, and evaluated.",
  "data": [
    {"substance": "Casein", "values": [
      {"measurement": "AUC0-120 min × 1000 (blood sugar level)", "result": "40.0 ± 2.0", "unit": "min mg/dL"}
    ]}
  ]
}
